From PubChem BioAssay (NCI)
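Dose response: 5 concentrations. Exposure: 48 h. Format: 96-well plates. Endpoint: linear interpolation; highest concentration if not reached. GI50 marks 50% less growth. TGI denotes the concentration required for complete inhibition of growth.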

Experiments:
Experiment in all cases: inhibition of tumour cell growth, NCI panel, 48 h
NCI/ADR-RES ovarian = test system: NCI/ADR-RES ovarian
PC-3 prostate = test system: PC-3 prostate
BT-549 breast = test system: BT-549 breast
DU-145 prostate = test system: DU-145 prostate
HOP-62 NSCLC = test system: HOP-62 NSCLC
MOLT-4 leukemia = test system: MOLT-4 leukemia
COLO 205 colon = test system: COLO 205 colon
EKVX NSCLC = test system: EKVX NSCLC
SF-268 CNS = test system: SF-268 CNS
T-47D breast = test system: T-47D breast

| Structure (SMILES) | GI50 (NCI/ADR-RES ovarian) [µM] | TGI (NCI/ADR-RES ovarian) [µM] | GI50 (PC-3 prostate) [µM] | TGI (PC-3 prostate) [µM] | GI50 (BT-549 breast) [µM] | TGI (BT-549 breast) [µM] | GI50 (DU-145 prostate) [µM] | TGI (DU-145 prostate) [µM] | GI50 (HOP-62 NSCLC) [µM] | TGI (HOP-62 NSCLC) [µM] | GI50 (MOLT-4 leukemia) [µM] | TGI (MOLT-4 leukemia) [µM] | GI50 (COLO 205 colon) [µM] | TGI (COLO 205 colon) [µM] | GI50 (EKVX NSCLC) [µM] | TGI (EKVX NSCLC) [µM] | GI50 (SF-268 CNS) [µM] | TGI (SF-268 CNS) [µM] | GI50 (T-47D breast) [µM] | TGI (T-47D breast) [µM] |
| --- | --- | --- | --- | --- | --- | --- | --- | --- | --- | --- | --- | --- | --- | --- | --- | --- | --- | --- | --- | --- |
| CC(C)(C)OC(=O)NCCCCCCCCCCCCn1c2c(c3ccccc3c1=O)C(=O)c1ccccc1-2 | 51.2 | > 100 | > 100 | > 100 | 38.5 | > 100 | 91.6 | > 100 | 32.7 | > 100 | 49.4 | > 100 | > 100 | > 100 | 85.7 | > 100 | 26.8 | > 100 | > 100 | > 100 |
| COc1ccc(N=c2nc3sc4cc(Cl)ccc4n3c(N)c2C#N)cc1 | 2.95 | 9.08 | 15.4 | > 100 | 5.17 | 98 | 35.8 | > 100 | 4.84 | > 100 | 7.74 | > 76.5 | 2.39 | 6.47 | 2.45 | > 100 | 4.29 | > 100 | 39.1 | > 100 |
| CCN(CC)c1ccc(/C=N/N=C(N)N)cc1 | 5.44 | 29.8 | 3.51 | 92.9 | 6.84 | 33.9 | 4.3 | 28.2 | 4.65 | 21.3 | 4.95 | 35.7 | 1.79 | 3.51 | 7.59 | 93.8 | 5.43 | 82.5 | 3.76 | 24.5 |
| Cc1cc(C)c(-c2c(O)c(Br)c(-c3c(C)cc(C)c(Br)c3C)c(O)c2Br)c(C)c1Br | 2.88 | 10.7 | 1.88 | 8.76 | 2.25 | 10.5 | 4.21 | 16 | 2.81 | 10.1 | 2.39 | 13 | 1.73 | 3.54 | 1.62 | 8.86 | 3.7 | 16.4 | 1.7 | 4.84 |
| S=C(Nc1ccc(-c2nc3ccccc3s2)cc1)Nc1ccc(-c2nc3ccccc3s2)cc1 | 22.5 | 52 | 26.8 | > 100 | 9.36 | 40.1 | 19.1 | 62.5 | 37.5 | > 100 | 10.2 | > 100 | 27.4 | > 100 | 8.79 | 30.2 | 23.6 | 94.8 | 18.8 | > 100 |
| OC[C@H]1N[C@H](CO)[C@@H](O)[C@H]1O | – | > 100 | – | > 100 | – | > 100 | – | > 100 | – | > 100 | – | > 100 | – | > 100 | – | > 100 | – | > 100 | – | > 100 |
| COc1c(OC2OC(C)C(O)C(O)C2O)c(OC)c2oc(-c3ccc(O)cc3)cc(=O)c2c1O (stereo not given) | 87.2 | > 100 | 34.8 | > 100 | 25.4 | 72.6 | 24.1 | 52.8 | 35.1 | > 100 | 15.4 | > 100 | 29.3 | > 100 | 38.4 | > 100 | 33.1 | > 100 | 22.3 | > 100 |
| C=C1C(=O)O[C@@H]2C[C@@H](C)[C@@H]3C=CC(=O)[C@@]3(C)[C@@H](OC(=O)CCCC(=O)O[C@H]3[C@@H]4C(=C)C(=O)O[C@@H]4C[C@@H](C)[C@@H]4C=CC(=O)[C@]43C)[C@H]12 | – | 4.12 | – | 0.299 | – | 0.07 | – | 0.957 | – | 2.61 | – | 0.0634 | – | 0.111 | – | 0.264 | – | 0.23 | – | 0.0666 |
| Cc1nc(C(=O)OCc2ccccc2)cc(OCc2ccccc2)c1C | 14.1 | 37.4 | 21 | > 69.8 | 17.9 | 34.2 | 17 | 41.4 | 19.9 | 40.7 | 0.517 | 7.53 | 22.6 | 65.1 | 19.3 | 52.7 | 17.5 | 41.6 | 18.8 | > 100 |
| COC1CCC(OC)C(c2nc3sccn3c2/C=N/N=C(N)N)C1 (stereo not given) | > 100 | > 100 | 25 | > 65.4 | 18.4 | 42.4 | 45.1 | > 80.2 | 17.2 | 42.7 | > 74.6 | > 100 | 25.3 | > 63.7 | 34.8 | > 92.7 | 18.5 | 45.8 | 31.9 | > 65.4 |
| Cc1cc(C)nc(NC(=O)COc2ccc(Cl)cc2)c1 | – | > 100 | – | > 100 | – | > 100 | – | > 100 | – | > 100 | – | > 100 | – | > 100 | – | > 100 | – | > 100 | – | > 100 |
| COc1cc(C=NCC(=O)CSC(c2ccccc2)c2ccccc2)ccc1O | 7.78 | 29.2 | 9.26 | 28.2 | 14 | 31.6 | 12.2 | 37.8 | 14.6 | 27.9 | 9.05 | 31.8 | 10.6 | 22.4 | 14.3 | 50.7 | 17.2 | 40 | 2.86 | 12.3 |
| COc1ccc2c(c1)[n+](=O)c(/C=C/C(=O)c1cc(OC)c(OC)c(OC)c1)c(C)n2[O-] | 11.3 | 39.5 | 15.7 | > 100 | 6.11 | 65 | 2.1 | 13.4 | 19.4 | 47 | 2.55 | 25.3 | 1.65 | 11.3 | 5.82 | > 100 | 6.11 | 45.6 | 2.56 | 14.7 |
